Assay results from ChEMBL document CHEMBL1649078, “Novel antiviral C5-substituted pyrimidine acyclic nucleoside phosphonates selected as human thymidylate kinase substrates” (J Med Chem, 2011).
pEC50, pKi: −log10 of the molar value. The source made the active and inactive calls.

Experiments:
[1] = organism: Homo sapiens; assay: Activity at human recombinant UCK by Michaelis-Menten equation analysis
[2] = organism: Homo sapiens; assay: Displacement of MABA-CDP from human recombinant UCK by fluorescence competition assay
[3] = tested on: Human betaherpesvirus 5; assay: Antiviral activity against HCMV AD169/Davis infected in human HEL cells assessed as reduction of virus-induced cytopathogenicity after 7 days; format: functional, organism-based; conditions: Human betaherpesvirus 5, AD169/Davis, 168 h
[4] = Cytotoxicity against human HEL cells after 3 days; format: cell-based
[5] = tested on: Human alphaherpesvirus 2; assay: Antiviral activity against HSV2 G infected in human HEL cells assessed as reduction of virus-induced cytopathogenicity after 7 days; format: functional, organism-based; conditions: Human alphaherpesvirus 2, strain G, 168 h
[6] = tested on: Human alphaherpesvirus 3; assay: Antiviral activity against VZV OKA expressing thymidine kinase infected in human HEL cells assessed as reduction of virus-induced cytopathogenicity after 5 days; format: functional, organism-based; conditions: Human alphaherpesvirus 3, OKA, 120 h
[7] = tested on: Human alphaherpesvirus 3; assay: Antiviral activity against thymidine kinase-deficient VZV 07/1 infected in human HEL cells assessed as reduction of virus-induced cytopathogenicity after 5 days; format: functional, organism-based; conditions: Human alphaherpesvirus 3, 07/1, HEL, 120 h
[8] = tested on: Human alphaherpesvirus 1; assay: Antiviral activity against HSV1 KOS infected in human HEL cells assessed as reduction of virus-induced cytopathogenicity after 7 days; format: functional, organism-based; conditions: Human alphaherpesvirus 1, KOS, 168 h
[9] = organism: Homo sapiens; assay: Displacement of Mant-ATP from human recombinant UCK by fluorescence competition assay
[10] = organism: Homo sapiens; assay: Binding affinity to human recombinant UCK by circular dichroism analysis
[11] = tested on: Human alphaherpesvirus 1; assay: Antiviral activity against acyclovir-resistant thymidine kinase deficient HSV1 KOS infected in human HEL cells assessed as reduction of virus-induced cytopathogenicity after 7 days; format: functional, organism-based; conditions: Human alphaherpesvirus 1, KOS, 168 h
[12] = Inhibition of human recombinant UCK by Double reciprocal plot analysis

Structure (SMILES)	Activity [1]	Activity [2]	other results
CCOP(=O)(CC/C=C/Cn1cc(F)c(=O)[nH]c1=O)OCC	inactive	inactive	
O=c1[nH]c(=O)n([C@H]2C[C@H](O)[C@@H](CO)O2)cc1/C=C/Br [BRIVUDINE]			pEC50 [3]: < 3.60; CC50 at 72 h [4]: > 250 µM; MCC at 72 h [4]: > 250 µM; pEC50 [5]: 4.52; pEC50 [6]: 7.92; pEC50 [7]: < 4.00
CCOP(=O)(CC/C=C/Cn1cc(Br)c(=O)n(C(=O)c2ccccc2)c1=O)OCC	inactive	inactive	
Nc1ccn(C[C@@H](CO)OCP(=O)(O)O)c(=O)n1 [CIDOFOVIR]			pEC50 [8]: 5.46; pEC50 [3]: 5.92; Activity [9]: inactive; CC50 at 72 h [4]: 280 µM; MCC at 72 h [4]: > 250 µM; pEC50 [5]: 5.70; Activity [10]: inactive; pEC50 [6]: 7.36; pEC50 [7]: 7.15; pEC50 [11]: 5.60
COP(=O)(C/C=C/Cn1cc(C)c(=O)n(C(=O)c2ccccc2)c1=O)OC	inactive	inactive	
COP(=O)(C/C=C\Cn1cc(Cl)c(=O)[nH]c1=O)OC	inactive	inactive	
Nc1ncnc2c1ncn2CCOCP(=O)(O)O			Activity [9]: inactive
Nc1ccn([C@H]2C[C@H](O)[C@@H](COP(=O)(O)O)O2)c(=O)n1			Activity [10]: inactive
Cc1cn(C/C=C/CP(=O)(OCOC(=O)C(C)(C)C)OCOC(=O)C(C)(C)C)c(=O)[nH]c1=O	inactive	inactive	pEC50 [8]: 5.51; pEC50 [3]: < 4.40; CC50 at 72 h [4]: 35 µM; MCC at 72 h [4]: ≥ 200 µM; pEC50 [5]: 5.21; pEC50 [6]: 6.39; pEC50 [7]: 6.72; pEC50 [11]: 5.04
COP(=O)(C/C=C\Cn1ccc(=O)n(C(=O)c2ccccc2)c1=O)OC	inactive	inactive	
CC(C)(C)C(=O)OCOP(=O)(C/C=C\Cn1cc(Br)c(=O)[nH]c1=O)OCOC(=O)C(C)(C)C	inactive	inactive	pEC50 [8]: < 3.70; pEC50 [3]: < 3.70; CC50 at 72 h [4]: 70 µM; MCC at 72 h [4]: > 200 µM; pEC50 [5]: 4.35; pEC50 [6]: 4.01; pEC50 [7]: 3.96; pEC50 [11]: < 3.70
COP(=O)(C/C=C/Cn1cc(Cl)c(=O)[nH]c1=O)OC	inactive	inactive	
O=c1[nH]c(=O)n(C/C=C/P(=O)(O)O)cc1Cl	inactive	inactive	
COP(=O)(C/C=C\Cn1cc(C)c(=O)[nH]c1=O)OC	inactive	inactive	
O=c1ccn(C/C=C/P(=O)(O)O)c(=O)[nH]1	inactive	inactive	
O=c1[nH]c(=O)n(C/C=C/CCP(=O)(O)O)cc1F	inactive	inactive	
CCOP(=O)(CC/C=C/Cn1cc(C)c(=O)[nH]c1=O)OCC	inactive	inactive	
CCOP(=O)(CC/C=C/Cn1cc(Cl)c(=O)n(C(=O)c2ccccc2)c1=O)OCC	inactive	inactive	
COP(=O)(C/C=C\Cn1cc(F)c(=O)n(C(=O)c2ccccc2)c1=O)OC	inactive	inactive	
CCOP(=O)(/C=C/Cn1cc(F)c(=O)[nH]c1=O)OCC	inactive	inactive	

Structure (SMILES)	Activity [1]	Activity [2]	other results
CCOP(=O)(CC/C=C/Cn1cc(Br)c(=O)[nH]c1=O)OCC	inactive	inactive	
CCOP(=O)(/C=C/Cn1cc(C)c(=O)[nH]c1=O)OCC	inactive	inactive	
Cc1cn(C/C=C/CP(=O)(O)O)c(=O)[nH]c1=O	inactive	inactive	pKi [12]: 2.92
O=c1[nH]c(=O)n(C/C=C/P(=O)(O)O)cc1F	inactive	inactive	
O=c1[nH]c(=O)n(C/C=C/P(=O)(O)O)cc1Br	inactive	inactive	
CC(C)(C)C(=O)OCOP(=O)(C/C=C/Cn1cc(Br)c(=O)[nH]c1=O)OCOC(=O)C(C)(C)C	inactive	inactive	pEC50 [8]: 4.70; pEC50 [3]: < 4.40; CC50 at 72 h [4]: 34 µM; MCC at 72 h [4]: 200 µM; pEC50 [5]: 4.80; pEC50 [6]: 4.70; pEC50 [7]: 4.82; pEC50 [11]: 4.72
Cc1cn(C/C=C/CCP(=O)(O)O)c(=O)[nH]c1=O	inactive	inactive	
CCOP(=O)(CC/C=C/Cn1cc(Cl)c(=O)[nH]c1=O)OCC	inactive	inactive	
COP(=O)(C/C=C\Cn1cc(Br)c(=O)[nH]c1=O)OC	inactive	inactive	
COP(=O)(C/C=C/Cn1cc(F)c(=O)n(C(=O)c2ccccc2)c1=O)OC	inactive	inactive	
CCOP(=O)(/C=C/Cn1ccc(=O)[nH]c1=O)OCC	inactive	inactive	
Nc1nc2c(ncn2COC(CO)CO)c(=O)[nH]1 [GANCICLOVIR]			pEC50 [8]: 7.10; pEC50 [3]: 5.28; CC50 at 72 h [4]: 164 µM; MCC at 72 h [4]: > 100 µM; pEC50 [5]: 7.30; pEC50 [11]: 5.52
O=c1ccn(C/C=C/CCP(=O)(O)O)c(=O)[nH]1	inactive	inactive	
O=c1[nH]c(=O)n(C/C=C/CP(=O)(O)O)cc1F	inactive	inactive	
COP(=O)(C/C=C/Cn1ccc(=O)[nH]c1=O)OC	inactive	inactive	
COP(=O)(C/C=C/Cn1cc(Br)c(=O)[nH]c1=O)OC	inactive	inactive	
COP(=O)(C/C=C\Cn1cc(F)c(=O)[nH]c1=O)OC	inactive	inactive	
COP(=O)(C/C=C/Cn1ccc(=O)n(C(=O)c2ccccc2)c1=O)OC	inactive	inactive	
O=c1[nH]c(=O)n(C/C=C/CCP(=O)(O)O)cc1Br	inactive	inactive	
CCOP(=O)(/C=C/Cn1cc(Cl)c(=O)[nH]c1=O)OCC	inactive	inactive	

Structure (SMILES)	Activity [1]	Activity [2]	other results
Cc1cn(C/C=C/P(=O)(O)O)c(=O)[nH]c1=O	inactive	inactive	
COP(=O)(C/C=C/Cn1cc(Br)c(=O)n(C(=O)c2ccccc2)c1=O)OC	inactive	inactive	
CCOP(=O)(CC/C=C/Cn1cc(F)c(=O)n(C(=O)c2ccccc2)c1=O)OCC	inactive	inactive	
O=c1[nH]c(=O)n(C/C=C/CCP(=O)(O)O)cc1Cl	inactive	inactive	
COP(=O)(C/C=C\Cn1cc(Cl)c(=O)n(C(=O)c2ccccc2)c1=O)OC	inactive	inactive	
CCOP(=O)(CC/C=C/Cn1ccc(=O)n(C(=O)c2ccccc2)c1=O)OCC	inactive	inactive	
C[C@H](Cn1cnc2c(N)ncnc21)OCP(=O)(O)O			Activity [9]: inactive
Cc1cn(C/C=C\CP(=O)(OCOC(=O)C(C)(C)C)OCOC(=O)C(C)(C)C)c(=O)[nH]c1=O	inactive	inactive	pEC50 [8]: < 4.40; pEC50 [3]: < 3.70; CC50 at 72 h [4]: 35 µM; MCC at 72 h [4]: ≥ 200 µM; pEC50 [5]: < 4.40; pEC50 [6]: < 4.40; pEC50 [7]: < 4.40; pEC50 [11]: < 4.40
COP(=O)(C/C=C\Cn1ccc(=O)[nH]c1=O)OC	inactive	inactive	
COP(=O)(C/C=C/Cn1cc(Cl)c(=O)n(C(=O)c2ccccc2)c1=O)OC	inactive	inactive	
CCOP(=O)(CC/C=C/Cn1ccc(=O)[nH]c1=O)OCC	inactive	inactive	
COP(=O)(C/C=C\Cn1cc(C)c(=O)n(C(=O)c2ccccc2)c1=O)OC	inactive	inactive	
O=c1[nH]c(=O)n(C/C=C/CP(=O)(O)O)cc1Br	inactive	inactive	
O=c1ccn(C/C=C/CP(=O)(O)O)c(=O)[nH]1	inactive	inactive	
COP(=O)(C/C=C/Cn1cc(F)c(=O)[nH]c1=O)OC	inactive	inactive	
COP(=O)(C/C=C/Cn1cc(C)c(=O)[nH]c1=O)OC	inactive	inactive	
COP(=O)(C/C=C\Cn1cc(Br)c(=O)n(C(=O)c2ccccc2)c1=O)OC	inactive	inactive	
CCOP(=O)(/C=C/Cn1cc(Br)c(=O)[nH]c1=O)OCC	inactive	inactive	
CCOP(=O)(CC/C=C/Cn1cc(C)c(=O)n(C(=O)c2ccccc2)c1=O)OCC	inactive	inactive	
